Reference: patent publication US20120058999A1, “Substituted Tetrahydropyrrolopyrazine Compounds” (Gruenenthal GmbH, priority 2010, published 2012)

Experiments:
human B1R = target: T1, human B1R (Homo sapiens, UniProt P46663); test: Functional investigation on the bradykinin 1 receptor, cell-based fluorescent calcium-mobilization assay (FLIPR), human; details: 10 μM test substance; CHO K1 cells transfected with human B1R gene; agonist Lys-Des-Arg9-bradykinin at EC80; % of maximum achievable inhibition
T1 construct: expressed in transfected cells; host or cells: CHO K1 cells (stably transfected)
T1 sequence (P46663 1-353): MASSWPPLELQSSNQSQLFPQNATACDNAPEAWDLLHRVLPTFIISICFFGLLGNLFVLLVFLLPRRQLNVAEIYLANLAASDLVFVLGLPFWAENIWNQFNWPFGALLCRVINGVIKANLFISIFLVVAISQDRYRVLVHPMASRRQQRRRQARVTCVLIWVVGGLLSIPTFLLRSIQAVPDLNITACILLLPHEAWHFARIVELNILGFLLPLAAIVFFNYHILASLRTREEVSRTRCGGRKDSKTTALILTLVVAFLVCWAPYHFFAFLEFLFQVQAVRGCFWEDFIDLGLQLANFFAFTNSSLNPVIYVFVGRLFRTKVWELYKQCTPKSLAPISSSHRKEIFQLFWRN
Protocol: (§1) The agonistic or antagonistic action of substances can be quantified on the bradykinin 1 receptor (B1R) of the human and rat species with ectopically expressing cell lines (CHO K1 cells) and with the aid of a Ca2+-sensitive dye (Fluo-4) using a fluorescent imaging plate reader (FLIPR). The value in % activation is based on the Ca2+ signal after addition of Lys-Des-Arg9 bradykinin (0.5 nM) or Des-Arg9 bradykinin (100 nM). Antagonists lead to a suppression of the Ca2+ influx following administration of the agonist. The % inhibition in comparison with the maximum achievable inhibition is indicated.
(§2) The agonistic or antagonistic action of substances can be determined on the bradykinin 1 receptor (B1R) of humans and rats by means of a cell-based fluorescent calcium-mobilization assay. According to this assay agonist-induced increase of intracellular free Ca^2+ is quantified by means of a Ca^2+-sensitive dye (Fluo-4 type, Molecular Probes Europe BV, Leiden, Netherlands), in a Fluorescent Imaging Plate Reader (FLIPR, Molecular Devices, Sunnyvale, USA) and/or the Novostar (BMG Labtech GmbH, Offenburg, Germany).
(§3) Chinese hamster ovary cells (CHO K1 cells), which are stably transfected with the human B1R gene (hB1R cells), or with the B1R gene of rats (rB1R cells) are used. For functional investigations these cells are seeded into black 96-well plates with a clear bottom (BD Biosciences, Heidelberg, Germany or Greiner, Frickenhausen, Germany) in a density of 20,000-35,000 cells/well. The cells are incubated overnight in a humidified atmosphere at 37° C. and 5% CO2 in culture medium (hB1R cells: Nutrient Mixture Ham's F12, Gibco Invitrogen GmbH, Karlsruhe, Germany or DMEM, Sigma-Aldrich, Taufkirchen, Germany; rB1R cells: D-MEM/F12, Gibco Invitrogen GmbH, Karlsruhe, Germany) with 10 vol. % FBS (foetal bovine serum, Gibco Invitrogen GmbH, Karlsruhe, Germany). On the following day the cells are loaded with the Ca^2+-sensitive dye Fluo-4-AM (Molecular Probes Europe BV, Leiden, Netherlands):
(§4) Method A: The medium of the cells is removed and cell plates are incubated with loading solution, which contains 2.13 μM Fluo-4-AM, 2.5 mM probenecid (Sigma-Aldrich, Taufkirchen, Germany), and 10 mM HEPES (Sigma-Aldrich, Taufkirchen, Germany) in HBSS buffer (Hank's buffered saline solution, Gibco Invitrogen GmbH, Karlsruhe, Germany) for 60 minutes at 37° C. After the plates are washed twice with HBSS buffer, HBSS buffer supplemented 0.1% BSA (bovine serum albumin; Sigma-Aldrich, Taufkirchen, Germany), 5.6 mM glucose and 0.05% gelatine (Merck KGaA, Darmstadt, Germany) is added. Cell plates are incubated for at least 20 minutes in the dark at room temperature before they are used for the Ca^2+ measurement in the FLIPR or Novostar. Method B: The plates are washed with buffer A (15 mM HEPES, 80 mM NaCl, 5 mM KCl, 1.2 mM CaCl2, 0.7 mM MgSO4, 2 mg/ml glucose, 2.5 mM probenecid) and subsequently loaded with buffer A containing 2.4 μM Fluo-4-AM and 0.025% pluronic F127 (Sigma-Aldrich, Taufkirchen, Germany) for 60 minutes at 37° C. Cell plates are washed twice with buffer A. Then, buffer A supplemented with 0.05% BSA and 0.05% gelatine is added and cell plates are incubated in the dark at room temperature for at least 20 minutes before measurement in the FLIPR or Novostar is started.
(§5) The Ca^2+-dependent fluorescence is measured both before and after the addition of substances (λex=488 nm, λem=540 nm). For quantification of the effect the highest fluorescence intensity (FC, fluorescence counts) over time is given.
(§6) The FLIPR protocol consists of two substance additions, done within the instrument while continuously monitoring the Ca^2+-dependent fluorescence at 540 nm. When the Novostar was used, one addition had to be done outside the instrument. First of all test substances (10 μM) are pipetted onto the cells and the intracellular Ca^2+ rise is compared with the control (hB1R: Lys-Des-Arg9-bradykinin >=50 nM; rB1R: Des-Arg9-bradykinin >=1 μM). […]

rat B1R = target: T2, rat B1R (Rattus norvegicus, UniProt P97583); test: Functional investigation on the bradykinin 1 receptor, cell-based fluorescent calcium-mobilization assay (FLIPR), rat; details: 10 μM test substance; CHO K1 cells transfected with rat B1R gene; agonist Des-Arg9-bradykinin at EC80; % of maximum achievable inhibition
T2 construct: expressed in transfected cells; host or cells: CHO K1 cells (stably transfected)
T2 sequence (P97583 1-337): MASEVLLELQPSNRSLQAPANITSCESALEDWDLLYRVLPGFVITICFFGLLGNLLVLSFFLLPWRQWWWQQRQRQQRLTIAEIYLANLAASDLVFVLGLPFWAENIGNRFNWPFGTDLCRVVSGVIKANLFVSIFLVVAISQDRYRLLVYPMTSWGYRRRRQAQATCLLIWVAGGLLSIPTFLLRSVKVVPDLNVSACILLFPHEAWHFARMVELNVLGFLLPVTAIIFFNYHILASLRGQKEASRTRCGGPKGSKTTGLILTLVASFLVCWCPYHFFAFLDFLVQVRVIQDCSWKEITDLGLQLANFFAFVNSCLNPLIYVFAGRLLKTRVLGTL
Protocol: as §1, §2, §3, §4, §5, §6

inhibition at 10 µM (human B1R) [%] | inhibition at 10 µM (rat B1R) [%] | Structure (SMILES)
88 | – | COc1cc(C)c(S(=O)(=O)N2CCn3cccc3C2CCCC(=O)N(C)C2CCCC(N3CCOCC3)C2)c(C)c1 (stereo not shown) [CC-55, 4-[2-[(4-Methoxy-2,6-dimethyl-phenyl)sulfonyl]-1,2,3,4-tetrahydro-pyrrolo[1,2-a]pyrazin-1-yl]-N-methyl-N-(3-morpholin-4-yl-cyclohexyl)-butyramide]
39 | – | CN(C(=O)CCC1c2cccn2CCN1S(=O)(=O)c1cccc(C(F)(F)F)c1)C1CCCC(N2CCOCC2)C1 (stereo not shown) [CC-57, N-Methyl-N-(3-morpholin-4-yl-cyclohexyl)-3-[2-[[3-(trifluoromethyl)phenyl]sulfonyl]-1,2,3,4-tetrahydro-pyrrolo[1,2-a]pyrazin-1-yl]-propionamide]
38 | 88 | COc1cc(C)c(S(=O)(=O)N2CCn3cccc3C2COCC(=O)N(C)C2CC(N3CCN(C)CC3)C2)c(C)c1 (stereo not shown) [CC-58, 2-[[2-[(4-Methoxy-2,6-dimethyl-phenyl)sulfonyl]-1,2,3,4-tetrahydro-pyrrolo[1,2-a]pyrazin-1-yl]-methoxy]-N-methyl-N-[3-(4-methyl-piperazin-1-yl)-cyclobutyl]-acetamide]
87 | – | CC(C)N1CCN(C2CCCC(N(C)C(=O)CCC3c4cccn4CCN3S(=O)(=O)c3cccc(C(F)(F)F)c3)C2)CC1 (stereo not shown) [CC-53, N-[3-(4-Isopropyl-piperazin-1-yl)-cyclohexyl]-N-methyl-3-[2-[[3-(trifluoromethyl)phenyl]sulfonyl]-1,2,3,4-tetrahydro-pyrrolo[1,2-a]pyrazin-1-yl]-propionamide]
98 | – | COc1cc(C)c(S(=O)(=O)N2CCn3cccc3C2COCC(=O)N(C)C2CCCC(N3CCOCC3)C2)c(C)c1 (stereo not shown) [CC-54, 2-[[2-[(4-Methoxy-2,6-dimethyl-phenyl)sulfonyl]-1,2,3,4-tetrahydro-pyrrolo[1,2-a]pyrazin-1-yl]-methoxy]-N-methyl-N-(3-morpholin-4-yl-cyclohexyl)-acetamide]
99 | – | COc1cc(C)c(S(=O)(=O)N2CCn3cccc3C2CCCC(=O)N(C)C2CCCC(N3CCN(C(C)C)CC3)C2)c(C)c1 (stereo not shown) [CC-51, N-[3-(4-Isopropyl-piperazin-1-yl)-cyclohexyl]-4-[2-[(4-methoxy-2,6-dimethyl-phenyl)sulfonyl]-1,2,3,4-tetrahydro-pyrrolo[1,2-a]pyrazin-1-yl]-N-methyl-butyramide]
100 | – | COc1ccc2cc(S(=O)(=O)N3CCn4cccc4C3CC(=O)N(C)C3CCCC(N4CCN(C(C)C)CC4)C3)ccc2c1 (stereo not shown) [CC-52, N-[3-(4-Isopropyl-piperazin-1-yl)-cyclohexyl]-2-[2-[(6-methoxy-naphthalen-2-yl)sulfonyl]-1,2,3,4-tetrahydro-pyrrolo[1,2-a]pyrazin-1-yl]-N-methyl-acetamide]
99 | – | COc1ccc2cc(S(=O)(=O)N3CCn4cccc4C3CC(=O)N(C)C3CCCC(N4CCOCC4)C3)ccc2c1 (stereo not shown) [CC-56, 2-[2-[(6-Methoxy-naphthalen-2-yl)sulfonyl]-1,2,3,4-tetrahydro-pyrrolo[1,2-a]pyrazin-1-yl]-N-methyl-N-(3-morpholin-4-yl-cyclohexyl)-acetamide]

The remaining lines, values behind:

Structure (SMILES) | inhibition at 10 µM (human B1R) [%] | inhibition at 10 µM (rat B1R) [%]
COc1ccc2cc(S(=O)(=O)N3CCn4cccc4C3CC(=O)N(C)[C@H]3CCC[C@@H](N4CCN(C)CC4)C3)ccc2c1 (relative stereo) [CC-04, 2-[2-[(6-Methoxy-naphthalen-2-yl)sulfonyl]-1,2,3,4-tetrahydro-pyrrolo[1,2-a]pyrazin-1-yl]-N-methyl-N-[cis-3-(4-methyl-piperazin-1-yl)-cyclohexyl]-acetamide] | 100 | 103
COc1cc(C)c(S(=O)(=O)N2CCn3cccc3C2COCC(=O)N[C@H]2CCC[C@@H](N3CCN(C)CC3)C2)c(C)c1 (relative stereo) [CC-06, 2-[[2-[(4-Methoxy-2,6-dimethyl-phenyl)sulfonyl]-1,2,3,4-tetrahydro-pyrrolo[1,2-a]pyrazin-1-yl]-methoxy]-N-[cis-3-(4-methyl-piperazin-1-yl)-cyclohexyl]-acetamide] | 96 | 100
CN1CCN([C@@H]2CCC[C@H](N(C)C(=O)CCC3c4cccn4CCN3S(=O)(=O)c3cccc(C(F)(F)F)c3)C2)CC1 (relative stereo) [CC-05, N-Methyl-N-[cis-3-(4-methyl-piperazin-1-yl)-cyclohexyl]-3-[2-[[3-(trifluoromethyl)phenyl]sulfonyl]-1,2,3,4-tetrahydro-pyrrolo[1,2-a]pyrazin-1-yl]-propionamide] | 43 | 91
CN1CCN([C@@H]2CCC[C@H](NC(=O)CCC3c4cccn4CCN3S(=O)(=O)c3cccc(C(F)(F)F)c3)C2)CC1 (relative stereo) [CC-10, N-[cis-3-(4-Methyl-piperazin-1-yl)-cyclohexyl]-3-[2-[[3-(trifluoromethyl)phenyl]sulfonyl]-1,2,3,4-tetrahydro-pyrrolo[1,2-a]pyrazin-1-yl]-propionamide] | 29 | 36
COc1ccc2cc(S(=O)(=O)N3CCn4cccc4C3CC(=O)N[C@H]3CCC[C@@H](N4CCN(C)CC4)C3)ccc2c1 (relative stereo) [CC-09, 2-[2-[(6-Methoxy-naphthalen-2-yl)sulfonyl]-1,2,3,4-tetrahydro-pyrrolo[1,2-a]pyrazin-1-yl]-N-[cis-3-(4-methyl-piperazin-1-yl)-cyclohexyl]-acetamide] | 100 | –
COc1cc(C)c(S(=O)(=O)N2CCn3cccc3C2COCC(=O)N(C)C2CCCC(N3CCN(C(C)C)CC3)C2)c(C)c1 (stereo not shown) [CC-50, N-[3-(4-Isopropyl-piperazin-1-yl)-cyclohexyl]-2-[[2-[(4-methoxy-2,6-dimethyl-phenyl)sulfonyl]-1,2,3,4-tetrahydro-pyrrolo[1,2-a]pyrazin-1-yl]-methoxy]-N-methyl-acetamide] | 99 | –
